Here are results for ten molecules from ChEMBL document CHEMBL1201862, “PubChem BioAssay data set” (2004).

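Exposure lasted 48 hours, with cells grown in 96-well plates and compounds tested at five concentrations. GI50 is the concentration that inhibits growth by half.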 Calls of active or inactive are those of the source. No stated cut-off is given here; in the data, active = GI50 up to about 1.1 µM and inactive = higher. Bounds are passed on as bounds.

Assay in all cases: NCI-60 cell line screen, 48 h
The test system of assay [1] is 786-0.
Assay [2] relates to A498.
Assay [3] deals with ACHN.
The test system of assay [4] is CAKI-1.
The test system of assay [5] is CCRF-CEM.
Assay [6] has as its system COLO 205.
In assay [7] the test system is HCT-116.
For assay [8], the system named is HT-29.
Assay [9] relates to LOX IMVI.
The subject of assay [10] is MDA-N.
Assay [11] deals with OVCAR-8.
Assay [12] deals with PC-3.
Assay [13] concerns SF-268.
Assay [14] deals with SK-MEL-28.
Assay [15] relates to SK-MEL-2.
The test system of assay [16] is SNB-75.
For assay [17], the system named is SR.
Assay [18] deals with SW-620.
In assay [19] the test system is TK-10.
For assay [20], the system named is UACC-62.

Consider `O=C(O)c1ccc(C(=O)c2ccccc2C(=O)O)cc1C(=O)O`, for which the GI50 is > 100 µM (inactive) in assay [1]; > 100 µM (inactive) in [2]; > 100 µM (inactive) in [3]; > 100 µM (inactive) in assay [4]; > 26.4 µM (inactive) in [5]; > 100 µM (inactive) in assay [6]. Moreover, the GI50 in assay [7], in assay [8], in assay [9], in assay [10], in assay [11] and in assay [12] was > 100 µM (inactive) throughout. In addition, the GI50 in [13], in assay [14], in [15], in assay [16], in [17] and in assay [18] was > 100 µM (inactive) throughout. Also, the GI50 in assay [19] and in assay [20] was > 100 µM (inactive) throughout.
`NS(=O)(=O)c1ccc(NC(=O)c2ccc3nc4ccccc4c(Nc4ccc(S(N)(=O)=O)cc4)c3c2)cc1`: the GI50 in [1], in assay [2], in assay [3], in assay [4], in assay [5] and in assay [6] was > 100 µM (inactive) throughout. The GI50 in [7], in [8], in assay [9], in assay [10], in assay [11] and in assay [12] was > 100 µM (inactive) throughout. Also, the GI50 is 87.5 µM (inactive) in [13]; > 100 µM (inactive) in assay [14]; > 100 µM (inactive) in assay [15]; > 100 µM (inactive) in [16]; > 100 µM (inactive) in [17]; > 100 µM (inactive) in assay [18]. The GI50 in assay [19] and in assay [20] was > 100 µM (inactive) in each case.
As for `Cc1ccc(S(=O)(=O)Nc2nc3ccccc3c(=O)n2C2CCCCC2)cc1`, the GI50 is > 100 µM (inactive) in assay [1]; > 100 µM (inactive) in assay [2]; > 100 µM (inactive) in assay [3]; 81.3 µM (inactive) in [4]; > 100 µM (inactive) in [5]; > 100 µM (inactive) in assay [6]. Moreover, the GI50 in assay [7], in [8], in assay [9], in [10], in assay [11] and in assay [12] was > 100 µM (inactive) each time. Further, the GI50 was > 100 µM (inactive) in assay [13]; > 100 µM (inactive) in [14]; > 100 µM (inactive) in assay [15]; 53.1 µM (inactive) in assay [16]; > 100 µM (inactive) in assay [17]; > 100 µM (inactive) in assay [18]. The GI50 in assay [19] is > 100 µM (inactive); in [20], 77.4 µM (inactive).
As for `CCOC(=O)c1cn2c(n1)sc1cc(C)c(C)cc12`, the GI50 in [1] is 19 µM (inactive); in assay [2], 17.1 µM (inactive); in [3], 19.1 µM (inactive); in [4], 20.6 µM (inactive); in assay [5] it was 24.1 µM (inactive); in assay [6], 26.5 µM (inactive). Moreover, the GI50 in assay [7] was 17.9 µM (inactive); in assay [8], 18 µM (inactive); in assay [9], 29.1 µM (inactive); in assay [10], 6.04 µM (inactive); in assay [11], 24.2 µM (inactive); in assay [12], 21.2 µM (inactive). Further, the GI50 in [13] is 24 µM (inactive); in assay [14], 19.2 µM (inactive); in [15], 31.6 µM (inactive); in assay [16], 22.6 µM (inactive); in assay [17] it was 6.68 µM (inactive); in assay [18], 20.1 µM (inactive). Further, the values for the GI50 in [19] and in assay [20] were 24.6 µM (inactive) and 28.3 µM (inactive), respectively.
In the case of `Cc1cc(N(C)c2ccccc2)nc(N(C)c2ccccc2)n1`, the GI50 was 41.3 µM (inactive) in [1]; 64.9 µM (inactive) in [2]; 28.4 µM (inactive) in assay [3]; > 100 µM (inactive) in [4]; 23.6 µM (inactive) in assay [5]; 23.9 µM (inactive) in assay [6]. Besides, the GI50 was 19.6 µM (inactive) in assay [7]; 17.9 µM (inactive) in assay [8]; 13.3 µM (inactive) in assay [9]; 52.4 µM (inactive) in assay [10]; 33 µM (inactive) in assay [11]; 43.3 µM (inactive) in assay [12]. Besides, the GI50 is 54 µM (inactive) in [13]; 35.5 µM (inactive) in assay [14]; 15.8 µM (inactive) in assay [15]; 41.1 µM (inactive) in [16]; 27.7 µM (inactive) in [17]; 43.1 µM (inactive) in assay [18]. Besides, the GI50 in assay [19] was 55.7 µM (inactive); in [20] it was 28.6 µM (inactive).
Take `N#CC(c1ccnc(Cl)n1)c1nc2ccccc2s1` (stereo not drawn): the GI50 in assay [1] is 3.78 µM (inactive); in assay [2], 15.8 µM (inactive); in assay [3], 13.7 µM (inactive); in [4] it was 3.87 µM (inactive); in assay [5] it was 0.063 µM (active); in [6], 10.4 µM (inactive). In addition, the GI50 in assay [7] was 2.58 µM (inactive); in assay [8], 2.88 µM (inactive); in [9], 3.55 µM (inactive); in assay [10] it was 3.38 µM (inactive); in assay [11], 3.78 µM (inactive); in [12] it was 3.78 µM (inactive). For the same molecule, the GI50 in [13] was 4.98 µM (inactive); in assay [14], 10.8 µM (inactive); in assay [15], 3.52 µM (inactive); in assay [16], 2.36 µM (inactive); in assay [17] it was 3.03 µM (inactive); in assay [18], 4.3 µM (inactive). For the same molecule, the values for the GI50 in [19] and in [20] were 7.33 µM (inactive) and 3.21 µM (inactive), respectively.
On to `Cc1ccc(S(=O)(=O)N(CC(O)COc2ccccc2)c2c(F)cccc2F)cc1` (stereo not drawn), for which the GI50 in assay [1] was 20.7 µM (inactive); in assay [2], 19.6 µM (inactive); in [3], 17.3 µM (inactive); in [4], 14.3 µM (inactive); in [5], 28.7 µM (inactive); in assay [6] it was 14.7 µM (inactive). The GI50 is 17.4 µM (inactive) in assay [8]; 15.2 µM (inactive) in assay [9]; 15.8 µM (inactive) in assay [10]; 17 µM (inactive) in assay [11]; 14.3 µM (inactive) in assay [12]; 17.1 µM (inactive) in assay [13]. The GI50 in [14] was 16.3 µM (inactive); in assay [15] it was 16.6 µM (inactive); in assay [16] it was 18.9 µM (inactive); in assay [17] it was 21.8 µM (inactive); in [18] it was 23 µM (inactive); in assay [19], 33.7 µM (inactive). For the same molecule, in assay [20], the GI50 was 14.8 µM (inactive).
In the case of `CN(C)[C@@H]1C(O)=C(C(=O)NCNc2nc3[nH]nnc3c(=O)[nH]2)C(=O)[C@@]2(O)C(O)=C3C(=O)c4c(O)cccc4[C@@](C)(O)[C@H]3C[C@@H]12`, the GI50 was 0.637 µM (active) in assay [1]; 92 µM (inactive) in [2]; 31.5 µM (inactive) in assay [3]; 0.557 µM (active) in assay [4]; 0.228 µM (active) in assay [5]; 23.6 µM (inactive) in [6]. In addition, the GI50 was 1.21 µM (inactive) in assay [7]; 43.7 µM (inactive) in assay [8]; 0.679 µM (active) in [9]; 0.393 µM (active) in assay [10]; 0.817 µM (active) in [11]; 3.42 µM (inactive) in assay [12]. In addition, the GI50 is 1.01 µM (active) in [13]; 1.33 µM (inactive) in assay [14]; 0.139 µM (active) in [15]; 11.2 µM (inactive) in [16]; 0.312 µM (active) in assay [17]; 0.471 µM (active) in assay [18]. The GI50 was 2.3 µM (inactive) in assay [19] and 0.346 µM (active) in assay [20].
In the case of `O=C(O)CCC(=O)c1ccc2ccc3cccc4ccc1c2c34`, the GI50 is 68.9 µM (inactive) in assay [1]; 67.5 µM (inactive) in [2]; 52.7 µM (inactive) in [3]; > 100 µM (inactive) in assay [4]; 45.3 µM (inactive) in assay [5]; 44.9 µM (inactive) in assay [6]. Also, the GI50 in assay [7] is 65.8 µM (inactive); in assay [8], 63.8 µM (inactive); in [9], 71.8 µM (inactive); in assay [10], > 100 µM (inactive); in assay [11] it was 66.7 µM (inactive); in assay [12], 67.9 µM (inactive). For the same molecule, the GI50 in [13] is 61.7 µM (inactive); in assay [14], 87.3 µM (inactive); in assay [15], > 100 µM (inactive); in assay [16] it was > 100 µM (inactive); in assay [17], 45.7 µM (inactive); in assay [18], 59.2 µM (inactive). Also, the values for the GI50 in assay [19] and in [20] were 49.1 µM (inactive) and > 100 µM (inactive), respectively.
For the molecule `O=C(NCP(=O)(O)O)c1cccnc1` [(NICOTINAMIDOMETHYL)PHOSPHONIC ACID], the GI50 in assay [1], in assay [2], in [3], in [4], in assay [5] and in [6] was > 100 µM (inactive) in each case. For the same molecule, the GI50 in assay [7], in assay [8], in assay [9], in [10], in assay [11] and in assay [12] was > 100 µM (inactive) each time. In addition, the GI50 in [14] is > 100 µM (inactive); in [15], > 100 µM (inactive); in assay [16], 92.3 µM (inactive); in assay [17] it was > 100 µM (inactive); in [18], > 100 µM (inactive); in assay [19], > 100 µM (inactive). Besides, in assay [20], the GI50 was > 100 µM (inactive).
